Laboratory results published in ChEMBL document CHEMBL1201862, “PubChem BioAssay data set” (2004).
Structures can show the parent of a compound that is named as a salt. Values belong to the compound of their own block, whether it stands above or below them. Calls of active or inactive are those of the source.

Assays:
[1] = target: 5-hydroxytryptamine receptor 2A (Mus musculus, UniProt P35363); type: functional, cell-based;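 note: CHO-K1 cells with tagged receptor and beta-arrestin; agonist potency measured as compound-induced activation of the receptor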
Mu-type opioid receptor = Mu-type opioid receptor (Homo sapiens, UniProt P35372); type: functional, cell-based;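 note: U2OS cells with beta-arrestin recruitment to OPRM1 by beta-gal complementation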
Vero = test: Vero cell toxicity, dose response, cytotoxicity control, plate reader, cherry-pick samples (AID 687020); type: functional, cell-based; settings: Chlorocebus sabaeus
[2] = target: T1, Beta-2 adrenergic receptor (Homo sapiens, UniProt P07550); test: Dose response for HTS for Beta-2AR agonists via FAP method from Powderset1.; type: functional
[3] = target: T1, Beta-2 adrenergic receptor; test: beta2AR agonists driving receptor internalization, dose response, cell-based, FAP fluorogen, flow cytometry, cherry pick 1 (AID 588763); type: functional
[4] = target: T2, Carboxy-terminal domain RNA polymerase II polypeptide A small phosphatase 1 (Homo sapiens, UniProt Q9GZU7); test: inhibitors of CTDSP1, concentration-response testing, biochemical assay, absorbance-based, actives from ultra-high-throughput screening (AID 540297); type: functional
T2 sequence (Q9GZU7 whole entry): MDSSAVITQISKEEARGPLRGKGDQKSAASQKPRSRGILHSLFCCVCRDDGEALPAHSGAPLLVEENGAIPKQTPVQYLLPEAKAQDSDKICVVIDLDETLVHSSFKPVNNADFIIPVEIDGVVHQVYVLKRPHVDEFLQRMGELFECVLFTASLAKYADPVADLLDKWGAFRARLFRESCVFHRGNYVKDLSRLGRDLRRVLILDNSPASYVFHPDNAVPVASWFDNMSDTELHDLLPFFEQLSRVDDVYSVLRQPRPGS

[5] = Counterscreen for activators of the function of SWI/SNF related, matrix associated, actin dependent regulator of chromatin, subfamily a, member 2 (SMARCA2, BRM): Luminescence-based cell-based high throughput dose response assay to identify non-selective compounds using the VP16 reporter assay.; type: functional
[6] = growth suppression of PTEN-null colon cells, dose response, cell-based, HCT116 PTEN knockout (AID 1047); type: functional;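 note: HCT116 colon tumor cells with PTEN knocked out; cells exposed to compound for 60 hours before readout; potency for loss of cell viability measured by luminescence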
[7] = target: SWI/SNF-related matrix-associated actin-dependent regulator of chromatin subfamily A member 2 (Homo sapiens, UniProt P51531); test: Luminescence-based cell-based high throughput dose response assay to identify activators of the function of SWI/SNF related, matrix associated, actin dependent regulator of chromatin, subfamily a, member 2 (SMARCA2, BRM).; type: functional
[8] = growth suppression of beta-catenin-knockout colon cells, dose response, cell-based, HCT116, human colon tumor (AID 1045); type: functional;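 note: HCT116 colon tumor cells with beta catenin knocked out; cells exposed to compound for 60 hours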
cells [9] = type: functional, cell-based
cells [10] = type: functional, cell-based; remark: listed apart in the source
[11] = target: T3, Trace amine-associated receptor 1 (Homo sapiens, UniProt Q96RJ0); test: Fluorescence-based cell-based high throughput dose response assay to identify agonists of the human trace amine associated receptor 1 (TAAR1).; type: functional
[12] = target: T3, Trace amine-associated receptor 1; test: Counterscreen for agonists of the human trace amine associated receptor 1 (hTAAR1): Fluorescence-based cell-based high throughput dose response assay to identify hTAAR1 agonist that also desensitize TAAR1 receptor response.; type: functional

T1 sequence (P07550 whole entry): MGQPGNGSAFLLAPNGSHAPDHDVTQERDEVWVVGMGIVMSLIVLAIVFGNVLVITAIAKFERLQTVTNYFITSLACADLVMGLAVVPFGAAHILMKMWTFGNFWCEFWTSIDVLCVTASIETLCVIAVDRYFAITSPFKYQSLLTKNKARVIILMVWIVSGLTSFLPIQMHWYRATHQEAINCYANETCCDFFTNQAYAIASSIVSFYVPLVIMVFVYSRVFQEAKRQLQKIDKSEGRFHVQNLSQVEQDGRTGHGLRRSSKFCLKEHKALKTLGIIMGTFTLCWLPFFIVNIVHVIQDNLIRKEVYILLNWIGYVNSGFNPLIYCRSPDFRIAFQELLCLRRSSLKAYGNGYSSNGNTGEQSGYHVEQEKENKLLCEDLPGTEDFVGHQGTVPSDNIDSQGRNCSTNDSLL
T3 sequence (Q96RJ0 whole entry): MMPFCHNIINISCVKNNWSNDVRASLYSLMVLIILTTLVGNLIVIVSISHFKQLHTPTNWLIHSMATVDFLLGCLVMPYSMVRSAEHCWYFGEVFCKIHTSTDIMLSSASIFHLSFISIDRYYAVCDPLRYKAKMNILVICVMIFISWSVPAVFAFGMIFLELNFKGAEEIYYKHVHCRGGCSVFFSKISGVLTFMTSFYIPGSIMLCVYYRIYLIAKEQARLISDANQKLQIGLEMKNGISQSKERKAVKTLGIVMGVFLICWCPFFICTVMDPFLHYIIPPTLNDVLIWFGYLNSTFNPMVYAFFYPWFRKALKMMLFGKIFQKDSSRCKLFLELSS
Mu-type opioid receptor, sequence (P35372 whole entry): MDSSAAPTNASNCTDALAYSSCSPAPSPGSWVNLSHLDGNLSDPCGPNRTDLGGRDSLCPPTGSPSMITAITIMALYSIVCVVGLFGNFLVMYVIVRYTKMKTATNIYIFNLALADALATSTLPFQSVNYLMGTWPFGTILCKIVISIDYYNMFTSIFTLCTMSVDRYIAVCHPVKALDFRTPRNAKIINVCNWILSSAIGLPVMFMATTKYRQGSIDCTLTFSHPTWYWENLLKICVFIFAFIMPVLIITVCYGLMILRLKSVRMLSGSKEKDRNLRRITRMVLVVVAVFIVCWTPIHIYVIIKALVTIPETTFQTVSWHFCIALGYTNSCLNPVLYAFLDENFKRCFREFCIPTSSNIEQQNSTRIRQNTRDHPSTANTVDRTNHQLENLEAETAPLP
5-hydroxytryptamine receptor 2A, sequence (P35363 whole entry): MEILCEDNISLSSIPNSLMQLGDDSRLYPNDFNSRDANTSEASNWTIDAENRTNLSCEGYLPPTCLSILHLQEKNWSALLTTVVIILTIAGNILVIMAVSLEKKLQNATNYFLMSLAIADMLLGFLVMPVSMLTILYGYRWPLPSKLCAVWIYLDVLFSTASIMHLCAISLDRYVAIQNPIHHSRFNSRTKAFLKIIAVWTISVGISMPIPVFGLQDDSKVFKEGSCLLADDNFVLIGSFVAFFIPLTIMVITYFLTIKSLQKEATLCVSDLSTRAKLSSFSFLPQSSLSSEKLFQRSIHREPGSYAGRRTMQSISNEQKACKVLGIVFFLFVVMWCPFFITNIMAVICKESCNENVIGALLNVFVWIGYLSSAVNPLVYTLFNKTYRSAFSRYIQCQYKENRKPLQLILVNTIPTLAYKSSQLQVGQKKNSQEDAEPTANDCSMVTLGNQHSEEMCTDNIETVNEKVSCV
SWI/SNF-related matrix-associated actin-dependent regulator of chromatin subfamily A member 2, sequence (P51531 whole entry): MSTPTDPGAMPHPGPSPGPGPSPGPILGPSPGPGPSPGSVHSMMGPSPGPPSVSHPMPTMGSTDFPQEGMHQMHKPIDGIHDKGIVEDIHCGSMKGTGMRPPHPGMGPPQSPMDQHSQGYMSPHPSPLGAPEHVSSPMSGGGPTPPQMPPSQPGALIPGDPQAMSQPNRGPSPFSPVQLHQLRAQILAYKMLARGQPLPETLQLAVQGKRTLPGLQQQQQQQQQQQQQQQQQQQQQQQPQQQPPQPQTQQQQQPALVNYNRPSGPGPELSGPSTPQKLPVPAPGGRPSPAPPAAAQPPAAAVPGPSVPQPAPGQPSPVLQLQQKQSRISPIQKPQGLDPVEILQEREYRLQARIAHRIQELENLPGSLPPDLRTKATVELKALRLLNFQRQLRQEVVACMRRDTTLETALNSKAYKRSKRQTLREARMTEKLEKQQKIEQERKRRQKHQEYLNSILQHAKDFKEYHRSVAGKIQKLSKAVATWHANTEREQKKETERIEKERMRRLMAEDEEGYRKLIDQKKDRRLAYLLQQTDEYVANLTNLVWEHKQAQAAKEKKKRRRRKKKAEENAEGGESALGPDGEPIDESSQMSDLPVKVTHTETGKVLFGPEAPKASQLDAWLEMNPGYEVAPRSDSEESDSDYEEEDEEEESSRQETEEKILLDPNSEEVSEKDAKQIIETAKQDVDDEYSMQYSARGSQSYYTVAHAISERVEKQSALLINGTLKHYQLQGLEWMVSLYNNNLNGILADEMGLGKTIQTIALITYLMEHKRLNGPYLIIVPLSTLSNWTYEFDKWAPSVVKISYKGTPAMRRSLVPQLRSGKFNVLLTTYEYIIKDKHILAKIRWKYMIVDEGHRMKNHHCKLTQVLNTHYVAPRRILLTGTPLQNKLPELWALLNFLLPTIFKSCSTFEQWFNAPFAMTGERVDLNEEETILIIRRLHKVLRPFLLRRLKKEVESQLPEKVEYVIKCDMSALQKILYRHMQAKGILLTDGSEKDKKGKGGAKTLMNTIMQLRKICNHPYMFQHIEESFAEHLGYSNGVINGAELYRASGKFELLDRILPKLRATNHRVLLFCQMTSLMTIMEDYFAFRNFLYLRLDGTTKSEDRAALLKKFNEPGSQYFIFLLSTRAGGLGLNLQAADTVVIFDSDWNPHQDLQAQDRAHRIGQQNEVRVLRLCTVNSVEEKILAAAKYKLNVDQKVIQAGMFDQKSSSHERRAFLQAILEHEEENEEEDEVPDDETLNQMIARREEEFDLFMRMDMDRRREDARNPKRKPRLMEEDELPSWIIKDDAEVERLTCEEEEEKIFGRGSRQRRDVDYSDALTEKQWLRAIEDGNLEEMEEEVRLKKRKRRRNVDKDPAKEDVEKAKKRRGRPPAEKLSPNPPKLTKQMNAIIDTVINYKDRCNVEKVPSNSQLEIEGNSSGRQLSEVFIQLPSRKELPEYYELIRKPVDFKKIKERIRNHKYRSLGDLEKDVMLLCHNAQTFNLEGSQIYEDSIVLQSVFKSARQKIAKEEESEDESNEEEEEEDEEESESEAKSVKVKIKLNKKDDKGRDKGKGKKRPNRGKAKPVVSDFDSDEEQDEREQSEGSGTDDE

SMILES: CCCN1CCC[C@@H](c2cccc(O)c2)C1 [PRECLAMOL HYDROCHLORIDE]
EC50 [1]: 76 µM (inactive) | EC50 (Mu-type opioid receptor): 92.4 µM (inactive)

SMILES: N#Cc1ccc(CN2CCN(C(=O)CC(NC(=O)c3ccccc3)c3ccccc3)CC2)cc1 (centres undefined)
AC50 (Vero): 38.1 µM (active)

EC50 [2]: 0.713 µM (active) | EC50 [3]: 0.629 µM (active) | IC50 [4]: 9.04 µM (active)
SMILES: Cc1ccc(SCC(=O)Nc2ccc(-c3nnc(-c4ccco4)o3)cc2)cc1

SMILES: OC1CCCN(Cc2ccc3ccc4cccc5ccc2c3c45)C1 (centres undefined)
EC50 [5]: > 91.2 µM (inactive) | EC50 [6]: 8.96 µM (active) | EC50 [7]: > 10.1 µM (inactive) | EC50 [8]: 8.21 µM (active)

SMILES: O=C(CCCCl)N1CCc2[nH]c3ccccc3c2C1
EC50 (cells [9]): > 29.9 µM (inactive) | IC50 (cells [10]): > 29.9 µM (inactive) | EC50 [11]: 0.492 µM (active) | IC50 [12]: 2.05 µM (active)
